Read-outs that look alike come from different tables or passages of the source. Square brackets hold non-standard residues; d marks the D form. Peptide text beside a SMILES is read from it. * marks the point of attachment. αMeF = C[C@](N)(Cc1ccccc1)C(=O)O; 4Pal = N[C@@H](Cc1ccncc1)C(=O)O; Isonicotinoyl = O=C(c1ccncc1)*; Aib = CC(C)(N)C(=O)O; Bz = O=C(c1ccccc1)*
Tests used:
Format in all cases: cell-based
human GIPR = target: T1, human GIPR (Homo sapiens, UniProt P48546); experiment: Agonist activity against human GIPR, CRE-luciferase reporter assay (rise in intracellular cAMP) in hGIPR/CRE-LUC/CHO-K1 cells
T1 construct: expressed in transfected cells; host or cells: CHO-K1 (CRE-LUC/CHO-K1), plasmid hGIPR/pMSRα-neo
T1 sequence (P48546 22-466): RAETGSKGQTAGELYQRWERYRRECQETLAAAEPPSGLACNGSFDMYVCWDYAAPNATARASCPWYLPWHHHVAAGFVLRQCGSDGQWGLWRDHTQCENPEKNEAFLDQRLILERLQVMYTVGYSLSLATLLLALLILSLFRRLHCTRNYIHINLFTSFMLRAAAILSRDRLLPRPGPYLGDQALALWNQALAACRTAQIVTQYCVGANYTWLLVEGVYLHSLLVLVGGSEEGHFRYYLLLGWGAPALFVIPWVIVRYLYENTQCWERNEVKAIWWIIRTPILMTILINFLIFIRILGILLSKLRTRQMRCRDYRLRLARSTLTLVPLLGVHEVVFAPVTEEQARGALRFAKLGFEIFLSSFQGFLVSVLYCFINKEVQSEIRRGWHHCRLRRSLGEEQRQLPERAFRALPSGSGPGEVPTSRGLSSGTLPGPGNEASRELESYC

human GLP-1R = target: T2, human GLP-1R (Homo sapiens, UniProt P43220); experiment: Agonist activity against human GLP-1R, CRE-luciferase reporter assay in hGLP-1R/CRE-luc/CHO-K1 cells
T2 construct: expressed in transfected cells; host or cells: CHO-K1, plasmids hGLP-1/pIRESneo3 and Cre-luc(Zeo)
T2 sequence (P43220 24-463): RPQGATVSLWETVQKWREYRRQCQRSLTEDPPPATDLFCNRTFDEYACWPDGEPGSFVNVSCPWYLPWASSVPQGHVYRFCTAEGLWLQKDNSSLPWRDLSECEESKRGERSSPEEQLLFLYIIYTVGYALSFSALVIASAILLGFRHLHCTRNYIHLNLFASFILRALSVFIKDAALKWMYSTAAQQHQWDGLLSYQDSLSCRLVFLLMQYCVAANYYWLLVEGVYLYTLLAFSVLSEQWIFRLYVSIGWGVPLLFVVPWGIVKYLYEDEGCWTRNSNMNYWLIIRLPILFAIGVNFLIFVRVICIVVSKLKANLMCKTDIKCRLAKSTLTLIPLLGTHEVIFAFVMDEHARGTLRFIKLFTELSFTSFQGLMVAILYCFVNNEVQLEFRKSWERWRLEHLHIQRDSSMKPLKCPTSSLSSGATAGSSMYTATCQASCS

human glucagon R = target: T3, human glucagon R (Homo sapiens, UniProt P47871); experiment: Agonist activity against human glucagon R, CRE-luciferase reporter assay in hGlucagonR/CRE-LUC/CHO-K1 cells
T3 construct: expressed in transfected cells; host or cells: CHO-K1 (CRE-LUC/CHO-K1), plasmid hGlucagonR/pMSRα-neo
T3 sequence (P47871 26-477): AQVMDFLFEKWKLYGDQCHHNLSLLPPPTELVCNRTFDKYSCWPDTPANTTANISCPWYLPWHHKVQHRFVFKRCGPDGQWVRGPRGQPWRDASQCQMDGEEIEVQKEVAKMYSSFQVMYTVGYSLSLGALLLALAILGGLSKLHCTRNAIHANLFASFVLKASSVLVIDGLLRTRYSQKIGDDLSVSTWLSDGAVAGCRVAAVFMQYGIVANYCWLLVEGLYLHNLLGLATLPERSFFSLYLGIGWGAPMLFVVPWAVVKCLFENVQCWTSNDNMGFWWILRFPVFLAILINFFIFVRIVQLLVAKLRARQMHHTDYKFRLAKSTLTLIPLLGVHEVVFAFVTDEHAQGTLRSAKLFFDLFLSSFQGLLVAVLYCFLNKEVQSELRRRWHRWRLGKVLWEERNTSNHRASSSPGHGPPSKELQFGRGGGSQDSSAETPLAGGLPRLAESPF

| SMILES | EC50 (human GIPR) [nM] | EC50 (human GLP-1R) [nM] | EC50 (human glucagon R) [nM] | EC50 (human GIPR; hGIPR/CRE-LUC/CHO-K1 cells, 4 hours incubation, 10 nM GIP = 100%, read-out: Agonist activity (EC50) hGIPR) [nM] | EC50 (human GLP-1R; hGLP-1R/CRE-luc/CHO-K1 cells, 4 hours incubation, 10 nM GLP-1 = 100%, read-out: Agonist activity (EC50) hGLP-1R) [nM] | EC50 (human glucagon R; hGlucagonR/CRE-LUC/CHO-K1 cells, 4 hours incubation, 10 nM glucagon = 100%, read-out: Agonist activity (EC50) hGCGR) [nM] |
| --- | --- | --- | --- | --- | --- | --- |
| CC[C@H](C)[C@H](NC(=O)C(C)(C)NC(=O)[C@H](Cc1ccc(O)cc1)NC(=O)[C@H](CC(=O)O)NC(=O)[C@H](CO)NC(=O)[C@@H](NC(=O)[C@](C)(Cc1ccccc1)NC(=O)[C@@H](NC(=O)CNC(=O)[C@H](CCC(=O)O)NC(=O)C(C)(C)NC(=O)[C@H](Cc1ccc(O)cc1)NC(=O)c1ccccc1)[C@@H](C)O)[C@@H](C)O)C(=O)NC(C)(C)C(=O)N[C@@H](CC(C)C)C(=O)N[C@@H](CC(=O)O)C(=O)N[C@@H](CCCCN)C(=O)N[C@@H](CCC(N)=O)C(=O)N[C@@H](C)C(=O)N[C@@H](CCC(N)=O)C(=O)N[C@@H](C)C(=O)N[C@@H](CCC(=O)O)C(=O)N[C@@H](Cc1ccccc1)C(=O)N[C@H](C(=O)N[C@@H](CCCCN)C(=O)N[C@@H](Cc1c[nH]c2ccccc12)C(=O)N[C@@H](CC(C)C)C(=O)N[C@@H](CC(C)C)C(=O)N[C@@H](CCCCN)C(=O)NCC(=O)NCC(=O)N1CCC[C@H]1C(=O)N[C@@H](CO)C(=O)N[C@@H](CO)C(=O)NCC(=O)N[C@@H](C)C(=O)N1CCC[C@H]1C(=O)N1CCC[C@H]1C(=O)N1CCC[C@H]1C(=O)N[C@@H](CO)C(=O)N[C@@H](CCCCN)C(N)=O)C(C)C [Example 19] (Bz-Y[Aib]EGT[αMeF]TSDY[Aib]I[Aib]LDKQAQAEFVKWLLKGGPSSGAPPPSK-NH2) | 0.024 | 0.037 | > 1000 |  |  |  |
| CC(C)C[C@H](NC(=O)[C@H](CC(C)C)NC(=O)[C@H](Cc1c[nH]c2ccccc12)NC(=O)[C@H](CCCCN)NC(=O)[C@@H](NC(=O)[C@H](Cc1ccccc1)NC(=O)[C@H](CCC(=O)O)NC(=O)[C@H](C)NC(=O)[C@H](CCC(N)=O)NC(=O)[C@H](C)NC(=O)[C@H](CCC(N)=O)NC(=O)[C@H](CCCCN)NC(=O)[C@H](CC(=O)O)NC(=O)[C@H](CC(C)C)NC(=O)C(C)(C)NC(=O)[C@H](Cc1ccncc1)NC(=O)C(C)(C)NC(=O)[C@H](Cc1ccc(O)cc1)NC(=O)[C@H](CC(=O)O)NC(=O)[C@H](CO)NC(=O)[C@@H](NC(=O)[C@](C)(Cc1ccccc1)NC(=O)[C@@H](NC(=O)CNC(=O)[C@H](CCC(=O)O)NC(=O)C(C)(C)NC(=O)[C@@H](N)Cc1ccc(O)cc1)[C@@H](C)O)[C@@H](C)O)C(C)C)C(=O)N[C@@H](CCCCN)C(=O)NCC(=O)NCC(=O)N1CCC[C@H]1C(=O)N[C@@H](CO)C(=O)N[C@@H](CO)C(=O)NCC(=O)N[C@@H](C)C(=O)N1CCC[C@H]1C(=O)N1CCC[C@H]1C(=O)N1CCC[C@H]1C(=O)N[C@@H](CO)C(=O)N[C@@H](CCCCN)C(N)=O [Example 12] (H-Y[Aib]EGT[αMeF]TSDY[Aib][4Pal][Aib]LDKQAQAEFVKWLLKGGPSSGAPPPSK-NH2) | 0.0072 | 0.014 | > 1000 |  |  |  |
| CC[C@H](C)[C@H](NC(=O)[C@H](C)NC(=O)[C@H](Cc1ccc(O)cc1)NC(=O)[C@H](CC(=O)O)NC(=O)[C@H](CO)NC(=O)[C@@H](NC(=O)[C@](C)(Cc1ccccc1)NC(=O)[C@@H](NC(=O)CNC(=O)[C@H](CCC(=O)O)NC(=O)C(C)(C)NC(=O)[C@@H](N)Cc1ccc(O)cc1)[C@@H](C)O)[C@@H](C)O)C(=O)NC(C)(C)C(=O)N[C@@H](CC(C)C)C(=O)N[C@@H](CC(=O)O)C(=O)N[C@@H](CCCCN)C(=O)N[C@@H](CCC(N)=O)C(=O)N[C@@H](C)C(=O)N[C@@H](CCC(N)=O)C(=O)N[C@@H](C)C(=O)N[C@@H](CCC(=O)O)C(=O)N[C@@H](Cc1ccccc1)C(=O)N[C@H](C(=O)N[C@@H](CCCCN)C(=O)N[C@@H](Cc1c[nH]c2ccccc12)C(=O)N[C@@H](CC(C)C)C(=O)N[C@@H](CC(C)C)C(=O)N[C@@H](CCCCN)C(=O)NCC(=O)NCC(=O)N1CCC[C@H]1C(=O)N[C@@H](CO)C(=O)N[C@@H](CO)C(=O)NCC(=O)N[C@@H](C)C(=O)N1CCC[C@H]1C(=O)N1CCC[C@H]1C(=O)N1CCC[C@H]1C(=O)N[C@@H](CO)C(N)=O)C(C)C [Example 5] (H-Y[Aib]EGT[αMeF]TSDYAI[Aib]LDKQAQAEFVKWLLKGGPSSGAPPPS-NH2) | 0.0055 | 0.0072 | > 1000 |  |  |  |
| CC[C@H](C)[C@H](NC(=O)C(C)(C)NC(=O)[C@H](Cc1ccc(O)cc1)NC(=O)[C@H](CC(=O)O)NC(=O)[C@H](CO)NC(=O)[C@@H](NC(=O)[C@](C)(Cc1ccccc1)NC(=O)[C@@H](NC(=O)CNC(=O)[C@H](CCC(=O)O)NC(=O)C(C)(C)NC(=O)[C@H](Cc1ccc(O)cc1)NC(=O)c1ccncc1)[C@@H](C)O)[C@@H](C)O)C(=O)NC(C)(C)C(=O)N[C@@H](CC(C)C)C(=O)N[C@@H](CC(=O)O)C(=O)N[C@@H](CCCCN)C(=O)N[C@@H](CCC(N)=O)C(=O)N[C@@H](C)C(=O)N[C@@H](CCC(N)=O)C(=O)N[C@@H](C)C(=O)N[C@@H](CCC(=O)O)C(=O)N[C@@H](Cc1ccccc1)C(=O)N[C@H](C(=O)N[C@@H](CCCCN)C(=O)N[C@@H](Cc1c[nH]c2ccccc12)C(=O)N[C@@H](CC(C)C)C(=O)N[C@@H](CC(C)C)C(=O)N[C@@H](CCCCN)C(=O)NCC(=O)NCC(=O)N1CCC[C@H]1C(=O)N[C@@H](CO)C(=O)N[C@@H](CO)C(=O)NCC(=O)N[C@@H](C)C(=O)N1CCC[C@H]1C(=O)N1CCC[C@H]1C(=O)N1CCC[C@H]1C(=O)N[C@@H](CO)C(=O)N[C@@H](CCCCN)C(N)=O)C(C)C [Example 20] (Isonicotinoyl-Y[Aib]EGT[αMeF]TSDY[Aib]I[Aib]LDKQAQAEFVKWLLKGGPSSGAPPPSK-NH2) |  |  |  | 0.026 | 0.13 | > 1000 |
| CC(C)C[C@H](NC(=O)[C@H](CC(C)C)NC(=O)[C@H](Cc1c[nH]c2ccccc12)NC(=O)[C@H](CCCCN)NC(=O)[C@@H](NC(=O)[C@H](Cc1ccccc1)NC(=O)[C@H](CCC(=O)O)NC(=O)[C@H](C)NC(=O)[C@H](CCC(N)=O)NC(=O)[C@H](C)NC(=O)[C@H](CCC(N)=O)NC(=O)[C@H](CCCCN)NC(=O)[C@H](CC(=O)O)NC(=O)[C@H](CC(C)C)NC(=O)C(C)(C)NC(=O)[C@H](CCCCN)NC(=O)C(C)(C)NC(=O)[C@H](Cc1ccc(O)cc1)NC(=O)[C@H](CC(=O)O)NC(=O)[C@H](CO)NC(=O)[C@@H](NC(=O)[C@](C)(Cc1ccccc1)NC(=O)[C@@H](NC(=O)CNC(=O)[C@H](CCC(=O)O)NC(=O)C(C)(C)NC(=O)[C@@H](N)Cc1ccc(O)cc1)[C@@H](C)O)[C@@H](C)O)C(C)C)C(=O)N[C@@H](CCCCN)C(=O)NCC(=O)NCC(=O)N1CCC[C@H]1C(=O)N[C@@H](CO)C(=O)N[C@@H](CO)C(=O)NCC(=O)N[C@@H](C)C(=O)N1CCC[C@H]1C(=O)N1CCC[C@H]1C(=O)N1CCC[C@H]1C(=O)N[C@@H](CO)C(=O)N[C@@H](CCCCN)C(N)=O [Example 9] (H-Y[Aib]EGT[αMeF]TSDY[Aib]K[Aib]LDKQAQAEFVKWLLKGGPSSGAPPPSK-NH2) | 0.008 | 0.015 | > 1000 |  |  |  |
| CC(C)C[C@H](NC(=O)[C@H](CC(C)C)NC(=O)[C@H](Cc1c[nH]c2ccccc12)NC(=O)[C@H](CCCCN)NC(=O)[C@@H](NC(=O)[C@H](Cc1ccccc1)NC(=O)[C@H](CCC(=O)O)NC(=O)[C@H](C)NC(=O)[C@H](CCC(N)=O)NC(=O)[C@H](C)NC(=O)[C@H](CCC(N)=O)NC(=O)[C@H](CCCCN)NC(=O)[C@H](CC(=O)O)NC(=O)[C@H](CC(C)C)NC(=O)[C@](C)(Cc1ccccc1)NC(=O)[C@H](CCCCN)NC(=O)C(C)(C)NC(=O)[C@H](Cc1ccc(O)cc1)NC(=O)[C@H](CC(=O)O)NC(=O)[C@H](CO)NC(=O)[C@@H](NC(=O)[C@](C)(Cc1ccccc1)NC(=O)[C@@H](NC(=O)CNC(=O)[C@H](CCC(=O)O)NC(=O)C(C)(C)NC(=O)[C@@H](N)Cc1ccc(O)cc1)[C@@H](C)O)[C@@H](C)O)C(C)C)C(=O)N[C@@H](CCCCN)C(=O)NCC(=O)NCC(=O)N1CCC[C@H]1C(=O)N[C@@H](CO)C(=O)N[C@@H](CO)C(=O)NCC(=O)N[C@@H](C)C(=O)N1CCC[C@H]1C(=O)N1CCC[C@H]1C(=O)N1CCC[C@H]1C(=O)N[C@@H](CO)C(=O)N[C@@H](CCCCN)C(N)=O [Example 15] (H-Y[Aib]EGT[αMeF]TSDY[Aib]K[αMeF]LDKQAQAEFVKWLLKGGPSSGAPPPSK-NH2) | 0.013 | 0.015 | > 1000 |  |  |  |

— US9200051B2, “Peptide compound” (TAKEDA PHARMACEUTICAL COMPANY LIMITED, priority 2013, dated 2015)
